Experiments:
[1] = LD50 mice per os (acute toxicity); settings: mouse, in vivo, po
[2] = test system: cramping induced by phenylbenzoquinone; experiment: antalgic activity: percentage inhibition of cramping induced by phenylbenzoquinone, mice i.p.; type: in vivo; settings: dose one tenth of LD-50 mice i.p., over 5 minutes, phenylbenzoquinone 0.02% i.p.
Protocol: The antalgic activity of the compounds of formula I was determined by measuring the cramping induced by phenylbenzoquinone, as described by Siegmund et al, Proc. Soc. Exp. Biol. Med. ([…]) 95, 729. A painful reaction, characterized by twisting movements and elongation of the abdomen, with scraping of the rear paws, was introduced by the intraperitoneal administration of a 0.02% w/v solution of phenyl-benzoquinone in […] at a rate of 0.5 ml/20 g body weight. The activity was measured by the percentage inhibition in the number of painful symptons over 5 minutes.

antalgic activity = experiment: ED50 mice per os antalgic activity; type: in vivo; settings: Mus musculus, po
[3] = kidney troubles / tolerance; type: in vivo; settings: footnote (a), in connection with ED50 mice per os
[4] = LD-50 mice i.p. (acute toxicity); settings: mouse, in vivo, ip
[5] = clinical double blind test as an antalgic agent; type: in vivo; settings: 41 patients, 400 mg per day, tablets, 20 days
Protocol: The compound of Example 1 has been tested clinically as an antalgic agent on 41 patients. A double blind test was carried out, using placebos and a dose of 400 mg per day of the active compound, administered as tablets.

LD0 rat (acute toxicity) = type: in vivo

| SMILES | Percentage of diminution of cramping, Tested compound [2] | LD50 [4] | other results |
| --- | --- | --- | --- |
| CC(C)(Oc1cccc(C(=O)c2ccccc2)c1)C(=O)O [Example 1, 2-(3-benzoyl)-phenoxy-2-methylpropionic acid] | 95% | 350 mg/kg | LD50 [1]: 350 mg/kg; ED50 (antalgic activity): 35 mg/kg; kidney troubles [3]: without kidney troubles; tolerance of the product ([5]; double blind): excellent; activity good, cases ([5]; double blind, patients who had received the active compound): 80%; relief of symptoms ([5]; patients who had received the active compound): the symptoms had been relieved; KD0 rat i.p. (LD0 rat (acute toxicity); i.p.): 540 mg/kg; LD0 rat per os (LD0 rat (acute toxicity); per os): higher than 1600 mg/kg |
| COc1ccc(C(=O)c2cccc(OC(C)(C)C(=O)O)c2)cc1 [Example 2] | 97% | 300 mg/kg | – |
| CC(C)(Oc1cccc(C(=O)c2cccc(C(F)(F)F)c2)c1)C(=O)O [Example 3] | 43% | 300 mg/kg | – |
| Cc1ccc(C(=O)c2cccc(OC(C)(C)C(=O)O)c2)cc1 [Example 4] | 66% | 400 mg/kg | – |
| Cc1ccc(C(=O)c2cccc(OC(C)(C)C(=O)O)c2)cc1C [Example 5] | 100% | 450 mg/kg | – |
| CC(Oc1cccc(C(=O)c2ccccc2)c1)C(=O)O (stereo not drawn) [Example 6] | 100% | 770 mg/kg | – |
| CC(Oc1cccc(C(=O)c2cccc(C(F)(F)F)c2)c1)C(=O)O (stereo not drawn) [Example 7] | 61% | 350 mg/kg | – |
| CC(Oc1cccc(C(=O)c2ccc(Cl)cc2Cl)c1)C(=O)O (stereo not drawn) [Example 8] | 100% | 800 mg/kg | – |
| O=C(O)COc1cccc(C(=O)c2ccc(Cl)cc2Cl)c1 [Example 9] | 94% | 350 mg/kg | – |
| Cc1ccc(C(=O)c2cccc(OC(C)(C)C(=O)O)c2)c(C)c1 [Example 10] | 69% | 600 mg/kg | – |
| Cc1ccccc1C(=O)c1cccc(OC(C)(C)C(=O)O)c1 [Example 11] | 70% | 600 mg/kg | – |
| Cc1ccc(C(=O)c2cccc(OCC(=O)O)c2)cc1 [Example 12] | 92% | 450 mg/kg | – |
| Cc1ccc(C(=O)c2cccc(OC(C)C(=O)O)c2)cc1 (stereo not drawn) [Example 13] | 98% | 700 mg/kg | – |
| O=C(OCC(O)CO)c1ccccc1Nc1ccnc2cc(Cl)ccc12 (stereo not drawn) [Glaphenine, 2,3-dihdroxypropyl N-(7-chloro-4-quinolyl)-anthranilate, reference compound] | – | – | ED50 (antalgic activity): 25 mg/kg; kidney troubles [3]: induces kidney troubles |
